# Values quoted from earlier work, collected in US6184217A (Cephalon, Inc., priority 1997, dated 2001).
# Tests used:
# smooth muscle MLCK = settings: cited from earlier work
# protein kinase C (PKC) = settings: cited from earlier work
# inflammation = settings: cited from earlier work
# histamine release = settings: cited from earlier work
# [1] = system: lethality resulting from endotoxin administration; settings: in vivo; cited from earlier work
# [2] = system: smooth muscle contraction; settings: cited from earlier work
# elongation of neurazone = settings: cited from earlier work
# IL-2 production = settings: cited from earlier work
compound,measurement,setting,value
COC(=O)C1(O)CC2OC1(C)n1c3ccccc3c3c4c(c5c6ccccc6n2c5c31)C(=O)NC4 (centres unmarked) [Compound K-252a],inhibiting smooth muscle MLCK,smooth muscle MLCK,inhibiting smooth muscle MLCK
same,inhibition of protein kinase C,protein kinase C (PKC),strongly inhibits protein kinase C (PKC)
same,anti-inflammatory action,inflammation,anti-inflammatory action
same,inhibiting histamine release,histamine release,inhibiting histamine release
same,lethality resulting from endotoxin administration,[1],reduces the lethality resulting from endotoxin administration
same,inhibiting smooth muscle contraction,[2],inhibiting smooth muscle contraction
same,inhibiting elongation of neurazone,elongation of neurazone,inhibiting elongation of neurazone
same,inhibiting IL-2 production,IL-2 production,inhibiting IL-2 production
